The source of these data is patent US5300433A, “Methods for the inactivation of viruses in viral-contaminated pharmaceutical compositions” (Rhone-Poulenc Rorer Pharmaceuticals Inc., priority 1991, dated 1994).

Read-outs that look alike come from different tables or passages of the source.

The test system of data set [1] is HIV. Particulars: initial titer 9 log10. The method, then:
A virus stock concentrate was prepared by infecting (CEM) cells at a multiplicity of infection of approximately 1. The cultures were established in 490 cm^2 Corning roller bottles containing approximately 450 ml of RPMI 1640 medium sufficient as is supplemented with 10% fetal bovine serum, penicillin, streptomycin, and 0.002 mg/ml polybrene. […] The total volume of the cultures was 1800 ml. […] The cultures were filtered through a 1.2 uM cellulose acetate filter. Virus was pelleted from the filtrate by centrifugation at 61,000×g for 4 hours at 4° C. The pelleted virus was resuspended with PBS (phosphate buffered saline solution).
Samples A, B and C were allowed to stand for 1 hour at 4° C. and sample D was allowed to stand for 1 hour at 25° C. Each sample was then centrifuged at 105,000×g for 90 minutes. The pellets were resuspended in 1 ml PBS and assayed for HIV by direct observation of the cytopathic effects of the virus on CEM cells. The assay method used in this example inherently rounds off titer to the nearest 0.5 log increment.

Data set [2] concerns HIV. Set-up: species or system Human Immunodeficiency Virus. The source says:
The Factor IX solution obtained is further contacted with HIV virus to obtain a final titer of 8-9 log10 of virus. […]. The solution is then dialyzed to remove the chemical disinfectant and then filtered through a membrane with an effective porosity equivalent to 100 KD molecular weight cut off.

The test system of data set [3] is Factor IX - deficient plasma. The data set can be described thus: Factor IX activity by degree of correction in APTT time of Factor IX-deficient plasma. Format: biochemical, human. As for the experimental part:
A purified Factor IX was obtained from PROTHAR® by chromatography on a monoclonal antibody affinity matrix specific to Factor IX. It contained approximately 0.065 milligrams of protein and 8 units of Factor IX activity per milliliter of solution. The purified preparation was ultrafiltered using an Amicon XM300 membrane and pressure of 5 p.s.i. The ultrafiltration proceeded very rapidly (about 2.5 ml/min). The filtrate was subsequently re-filtered through an Amicon XM100 membrane. The Factor IX activity in the final ultrafiltrate was 67%. Losses were not the result of Factor IX inactivation since specific activity was unaltered.
The product covered by this registered trademark of Armour Pharmaceutical is a stable lyophilized concentrate of human Factors II, VII, IX and X. It is prepared from pooled human plasma. Upon reconstitution it is a concentrated protein solution containing approximately 18 milligrams of total protein and 33 units of Factor IX activity per milliliter. The specific activity of Factor IX in the product ranges from 0 8-2.0 units per milligram of total protein.
In the first run, PROTHAR® was diluted 1:1 with 0.05M Tris-HCL, pH8.0. The resultant solution was ultrafiltered through an Amicon XM100 membrane (molecular weight cut-off of 100 K Daltons) using a pressure of 15 p.s.i. The ultrafiltration proceeded very slowly (about 0.25 ml/min), and the flow rate slowed as the protein inside the stirred cell became more concentrated. Only about 1% of the Factor IX activity found in the starting material appeared in the ultrafiltrate. […] Factor IX activity, in this and all other instances, is assayed by determining the degree of correction in APTT time of Factor IX - deficient plasma. J. H. Lenahan, Phillips and Phillips, Clin. Chem., Vol. 12, page 269 (1966).
Subsequent experiments were performed using an Amicon XM300 membrane (molecular weight cut-off of 300 K Daltons), pressures of 5 p.s.i., and reconstituted PROTHAR® dilutions of 1:6 and 1:10. Only about 17-19% of the Factor IX activity was found in the ultrafiltrate.

Consider `N#CS` [NaSCN, sodium thiocyanate], for which the “TOTAL LOG10 ID50 (found)” value with HIV [1] (Sample A: final NaSCN 1.5, 1 hour, 4° C.) was 1.0 LOG10 ID50; in the data set on HIV [1] (Sample B: final NaSCN 2.0, 1 hour, 4° C.), 1.0 LOG10 ID50; in the data set on HIV [1] (Sample C: final NaSCN 3.0, no buffer, 1 hour, 4° C.), 1.0 LOG10 ID50; in the data set with HIV [1] (Sample D: final NaSCN 2.0, 1 hour, 25° C.), 1.0 LOG10 ID50. In addition, in the data set with HIV [2], the “titer of HIV infectivity” value is given as “undetectable levels”.

Regarding “Factor IX: purified Factor IX obtained from PROTHAR by chromatography on a monoclonal antibody affinity matrix specific to Factor IX”, in data set [3] (Example 5, 100 KD molecular weight cut-off filtration), the F.IX recovered is reported as 80-100%. The “Factor IX activity recovered” value in data set [3] (Example 6, dialysis and 100 KD cut-off filtration) is on record as 80-100%. For the same compound, the “specific activity after ultrafiltration” value in data set [3] (affinity-purified Factor IX, XM300 then XM100 membrane) was “unaltered”. In addition, the “Factor IX activity in the final ultrafiltrate” value in data set [3] (affinity-purified Factor IX, XM300 then XM100 membrane, 5 p.s.i.) is on record as 67%. The “active Factor IX content, of the initial value” in data set [3] (after 0.1% tri(n-butyl)phosphate and 1% Tween 80) is more than 80%. Besides, in data set [3] (pre-purified by chromatography on a monoclonal antibody affinity matrix), the specific activity is ≤ 190 units/mg of protein. Also, the “Factor IX activity per milliliter of solution” value in data set [3] (purified Factor IX, approximately 0.065 milligrams of protein per milliliter) is listed as approximately 8 units per milliliter. The “HIV titer after dialysis and filtration” value in the data set on HIV [2] (100 KD cut-off membrane, after NaSCN treatment) was “further reduced”.
